Values quoted from earlier work as cited in patent US6717012B2, “Antioxidant nitroxides and nitrones as therapeutic agents” (priority 2001, dated 2004).

Columns and labels:
[1] = system: rats with an experimental painful peripheral neuropathy
[2] = target: NMDA receptor (Homo sapiens, UniProt Q05586)
[3] = system: nicotinic acetylcholine receptors
[4] = target: PCP and MK-801 binding sites of the NMDA receptor (Homo sapiens, UniProt Q05586); conditions: postmortem human frontal cortex, at therapeutic concentrations
[5] = system: cortical and retinal neuron cultures
[6] = target: NMDA channel ([3H]dizocilpine binding to brain membranes) (Homo sapiens, UniProt Q05586)
[7] = system: quinolic acid-induced hippocampal damage; conditions: rats
[8] = target: T1, 5-hydroxytryptamine 5-HT3 receptors (Homo sapiens, UniProt P46098)
T1 sequence (P46098 24-478): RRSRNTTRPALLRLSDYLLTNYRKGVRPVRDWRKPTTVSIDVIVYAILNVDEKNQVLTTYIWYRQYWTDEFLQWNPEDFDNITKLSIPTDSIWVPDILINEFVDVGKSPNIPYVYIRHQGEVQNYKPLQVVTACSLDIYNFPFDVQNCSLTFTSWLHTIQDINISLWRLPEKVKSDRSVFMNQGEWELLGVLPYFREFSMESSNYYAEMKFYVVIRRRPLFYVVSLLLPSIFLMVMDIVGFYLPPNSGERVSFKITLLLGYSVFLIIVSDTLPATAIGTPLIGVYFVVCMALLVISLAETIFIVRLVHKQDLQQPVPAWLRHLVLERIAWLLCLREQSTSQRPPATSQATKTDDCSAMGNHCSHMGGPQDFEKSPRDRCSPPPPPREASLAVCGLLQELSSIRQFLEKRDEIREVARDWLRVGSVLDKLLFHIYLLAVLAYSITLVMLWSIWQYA

antagonist potency at the NMDA receptor [2] | block of nicotinic acetylcholine receptors [3] | binding to PCP and MK-801 binding sites [4] | inhibition of [3H]dizocilpine binding [6] | block of 5-HT3 receptors [8] | SMILES | effect on heat hyperalgesia [1] | protection from toxicity of glutamate, NMDA and HIV-1 coat protein gp120 [5] | prevention of quinolic acid-induced hippocampal damage [7]
– | – | – | – | – | CC1(C)CC(O)CC(C)(C)N1[O] [4-hydroxy-2,2,6,6-tetramethylpiperidine-1-oxyl] | alleviated heat hyperalgesia | – | –
micromolar antagonist | blocks | binds | inhibits | blocks | CC12CC3CC(C)(C1)CC(N)(C3)C2 [Memantine, 1-amino-3,5-dimethyladamantane] | – | protects | prevents
